Patent EP2970215B1, “PYRROLIDINE DERIVATIVES, PHARMACEUTICAL COMPOSITIONS CONTAINING THEM, AND THEIR USE IN THERAPY” (AbbVie Deutschland GmbH & Co. KG, priority 2013, dated 2014)

Target: T1, human GlyT1c transporter (Homo sapiens, UniProt P48067)
T1 construct: expressed in transfected cells; host or cells: CHO cells (recombinant; line hGlyT1c_5_CHO is named for the uptake assay)
T1 sequence (P48067 1-706): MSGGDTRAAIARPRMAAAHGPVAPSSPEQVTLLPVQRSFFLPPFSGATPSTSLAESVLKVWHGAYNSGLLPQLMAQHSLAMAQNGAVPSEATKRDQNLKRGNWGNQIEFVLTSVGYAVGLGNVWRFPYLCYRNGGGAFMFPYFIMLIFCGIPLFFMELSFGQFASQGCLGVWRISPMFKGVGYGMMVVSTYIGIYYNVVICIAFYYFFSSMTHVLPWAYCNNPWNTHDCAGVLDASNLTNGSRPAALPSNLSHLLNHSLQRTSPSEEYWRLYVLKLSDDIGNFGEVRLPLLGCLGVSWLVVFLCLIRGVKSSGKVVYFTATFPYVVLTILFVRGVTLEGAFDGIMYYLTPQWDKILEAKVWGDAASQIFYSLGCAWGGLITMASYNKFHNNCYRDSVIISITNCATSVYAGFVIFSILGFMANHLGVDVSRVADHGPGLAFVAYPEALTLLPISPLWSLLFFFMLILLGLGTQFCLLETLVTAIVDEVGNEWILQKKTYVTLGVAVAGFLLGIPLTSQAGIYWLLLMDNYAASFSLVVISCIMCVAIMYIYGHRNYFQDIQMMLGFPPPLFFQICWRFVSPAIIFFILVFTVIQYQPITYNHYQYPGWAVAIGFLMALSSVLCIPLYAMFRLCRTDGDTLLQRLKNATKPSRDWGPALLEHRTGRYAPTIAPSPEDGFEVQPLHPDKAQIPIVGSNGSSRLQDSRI
Assay: Radioligand binding assay using recombinant CHO cell membranes expressing human GlyT1
Conditions: radioligand binding to human GlyT1c transporter-expressing membranes
Text: 2. Radioligand binding assays using recombinant CHO cell membranes expressing human GlyT1: […]

Ki [µM] | Compound
≤ 0.1 | Cn1cnc(S(=O)(=O)N2C[C@H](Nc3cccc(C(C)(O)C(F)(F)F)c3)[C@@H](c3ccccc3)C2)c1 (stereo partly drawn) [Example 399, 1,1,1-trifluoro-2-[3-({(3R,4S)-1-[(1-methyl-1H-imidazol-4-yl)sulfonyl]-4-phenylpyrrolidin-3-yl}amino)phenyl]propan-2-ol]
≤ 1 | Cn1cnc(S(=O)(=O)N2C[C@H](Nc3cc(F)ccn3)[C@@H](c3ccccc3)C2)c1 [Example 405, 4-fluoro-N-{(3R,4S)-1-[(1-methyl-1H-imidazol-4-yl)sulfonyl]-4-phenylpyrrolidin-3-yl}pyridin-2-amine]
≤ 10 | Cn1cnc(S(=O)(=O)N2C[C@H](Nc3ncnc4[nH]ccc34)[C@@H](c3ccccc3)C2)c1 [Example 406, N-{(3R,4S)-1-[(1-methyl-1H-imidazol-4-yl)sulfonyl]-4-phenylpyrrolidin-3-yl}-7H-pyrrolo[2,3-d]pyrimidin-4-amine]
≤ 10 | Cn1cnc(S(=O)(=O)N2C[C@H](Nc3ncc(F)c(C(F)(F)F)c3F)[C@@H](c3ccccc3)C2)c1 [Example 408, 3,5-difluoro-N-{(3R,4S)-1-[(1-methyl-1H-imidazol-4-yl)sulfonyl]-4-phenylpyrrolidin-3-yl}-4-(trifluoromethyl)pyridin-2-amine]
≤ 0.1 | Cn1cnc(S(=O)(=O)N2C[C@H](NCc3ccc(C(F)(F)F)cn3)[C@@H](c3ccccc3)C2)c1 [Example 409, (3R,4S)-1-[(1-methyl-1H-imidazol-4-yl)sulfonyl]-4-phenyl-N-{[5-(trifluoromethyl)pyridin-2-yl]methyl}pyrrolidin-3-amine]
≤ 10 | Cn1cnc(S(=O)(=O)N2C[C@H](Nc3cnc(C4CC4)cn3)[C@@H](c3ccccc3)C2)c1 [Example 410, 5-cyclopropyl-N-{(3R,4S)-1-[(1-methyl-1H-imidazol-4-yl)sulfonyl]-4-phenylpyrrolidin-3-yl}pyrazin-2-amine]
≤ 10 | Cn1cnc(S(=O)(=O)N2C[C@H](Nc3cnc(N4CCCC4)cn3)[C@@H](c3ccccc3)C2)c1 [Example 413, N-{(3R,4S)-1-[(1-methyl-1H-imidazol-4-yl)sulfonyl]-4-phenylpyrrolidin-3-yl}-5-(pyrrolidin-1-yl)pyrazin-2-amine]
≤ 10 | Cn1cnc(S(=O)(=O)N2C[C@H](NC(=O)c3cnc(Cl)cn3)[C@@H](c3ccccc3)C2)c1 [Example 415, 5-chloro-N-{(3R,4S)-1-[(1-methyl-1H-imidazol-4-yl)sulfonyl]-4-phenylpyrrolidin-3-yl}pyrazine-2-carboxamide]
≤ 0.1 | Cn1cnc(S(=O)(=O)N2C[C@H](Nc3ccc(F)c(F)c3)[C@@H](c3ccc(F)cc3)C2)c1 [Example 418, (3R,4S)-N-(3,4-difluorophenyl)-4-(4-fluorophenyl)-1-[(1-methyl-1H-imidazol-4-yl)sulfonyl]pyrrolidin-3-amine]
≤ 10 | Cn1cnc(S(=O)(=O)N2C[C@H](Nc3cccc4c3CNC4=O)[C@@H](c3ccccc3)C2)c1 [Example 421, 4-({(3R,4S)-1-[(1-methyl-1H-imidazol-4-yl)sulfonyl]-4-phenylpyrrolidin-3-yl}amino)-2,3-dihydro-1H-isoindol-1-one]
≤ 10 | Cn1cnc(S(=O)(=O)N2C[C@H](NCC3CNC(C(F)(F)F)CN3)[C@@H](c3ccccc3)C2)c1 (stereo partly drawn) [Example 423, (3R,4S)-1-[(1-methyl-1H-imidazol-4-yl)sulfonyl]-4-phenyl-N-{[5-(trifluoromethyl)piperazin-2-yl]methyl}pyrrolidin-3-amine]
≤ 1 | Cn1cnc(S(=O)(=O)N2C[C@H](Nc3ncc(F)cn3)[C@@H](c3ccccc3)C2)c1 [Example 424, 5-fluoro-N-{(3R,4S)-1-[(1-methyl-1H-imidazol-4-yl)sulfonyl]-4-phenylpyrrolidin-3-yl}pyrimidin-2-amine]
≤ 1 | Cn1cnc(S(=O)(=O)N2C[C@H](NCCCC(F)(F)F)[C@@H](c3ccccc3)C2)c1 [Example 426, (3R,4S)-1-[(1-methyl-1H-imidazol-4-yl)sulfonyl]-4-phenyl-N-(4,4,4-trifluorobutyl)pyrrolidin-3-amine]
≤ 0.1 | Cn1cnc(S(=O)(=O)N2C[C@H](NCCC3CCCC3)[C@@H](c3ccccc3)C2)c1 [Example 427, (3R,4S)-N-(2-cyclopentylethyl)-1-[(1-methyl-1H-imidazol-4-yl)sulfonyl]-4-phenylpyrrolidin-3-amine]
> 10 | Cn1cnc(S(=O)(=O)N2C[C@H](NCC3(C)CCOCC3)[C@@H](c3ccccc3)C2)c1 [Example 429, (3R,4S)-1-[(1-methyl-1H-imidazol-4-yl)sulfonyl]-N-[(4-methyltetrahydro-2H-pyran-4-yl)methyl]-4-phenylpyrrolidin-3-amine]
> 10 | Cn1cnc(S(=O)(=O)N2C[C@H](NCc3scnc3-c3ccccc3)[C@@H](c3ccccc3)C2)c1 [Example 430, (3R,4S)-1-[(1-methyl-1H-imidazol-4-yl)sulfonyl]-4-phenyl-N-[(4-phenyl-1,3-thiazol-5-yl)methyl]pyrrolidin-3-amine]
≤ 10 | Cc1cnc(CN[C@H]2CN(S(=O)(=O)c3cn(C)cn3)C[C@@H]2c2ccccc2)s1 [Example 431, (3R,4S)-1-[(1-methyl-1H-imidazol-4-yl)sulfonyl]-N-[(5-methyl-1,3-thiazol-2-yl)methyl]-4-phenylpyrrolidin-3-amine]
≤ 10 | Cn1cnc(S(=O)(=O)N2C[C@H](NCc3c(Cl)cncc3Cl)[C@@H](c3ccccc3)C2)c1 [Example 432, (3R,4S)-N-[(3,5-dichloropyridin-4-yl)methyl]-1-[(1-methyl-1H-imidazol-4-yl)sulfonyl]-4-phenylpyrrolidin-3-amine]
≤ 0.1 | CCCCC(CC)CN[C@H]1CN(S(=O)(=O)c2cn(C)cn2)C[C@@H]1c1ccccc1 (stereo partly drawn) [Example 433, (3R,4S)-N-(2-ethylhexyl)-1-[(1-methyl-1H-imidazol-4-yl)sulfonyl]-4-phenylpyrrolidin-3-amine]
≤ 10 | Cc1ncsc1CN[C@H]1CN(S(=O)(=O)c2cn(C)cn2)C[C@@H]1c1ccccc1 [Example 434, (3R,4S)-1-[(1-methyl-1H-imidazol-4-yl)sulfonyl]-N-[(4-methyl-1,3-thiazol-5-yl)methyl]-4-phenylpyrrolidin-3-amine]
≤ 0.1 | Cn1cnc(S(=O)(=O)N2C[C@H](NCc3sc(Cl)nc3Cl)[C@@H](c3ccccc3)C2)c1 [Example 435, (3R,4S)-N-[(2,4-dichloro-1,3-thiazol-5-yl)methyl]-1-[(1-methyl-1H-imidazol-4-yl)sulfonyl]-4-phenylpyrrolidin-3-amine]
≤ 1 | Cn1cnc(S(=O)(=O)N2C[C@H](NCC(C)(C)C)[C@@H](c3ccccc3)C2)c1 [Example 436, (3R,4S)-N-(2,2-dimethylpropyl)-1-[(1-methyl-1H-imidazol-4-yl)sulfonyl]-4-phenylpyrrolidin-3-amine]
≤ 0.1 | Cc1ccc2sc(CN[C@H]3CN(S(=O)(=O)c4cn(C)cn4)C[C@@H]3c3ccccc3)cc2c1 [Example 437, (3R,4S)-N-[(5-methyl-1-benzothiophen-2-yl)methyl]-1-[(1-methyl-1H-imidazol-4-yl)sulfonyl]-4-phenylpyrrolidin-3-amine]

Compound | Ki [µM]
Cn1cnc(S(=O)(=O)N2C[C@H](Nc3cccc(S(C)(=O)=O)c3)[C@@H](c3ccccc3)C2)c1 [Example 422, (3R,4S)-1-[(1-methyl-1H-imidazol-4-yl)sulfonyl]-N-[3-(methylsulfonyl)phenyl]-4-phenylpyrrolidin-3-amine] | ≤ 1
